In ChEMBL document CHEMBL1154834, “A theoretical study of the structure-radical scavenging activity of trans-resveratrol analogues and cis-resveratrol in gas phase and water environment” (Eur J Med Chem, 2010) one finds Activity data, which are given here for three compounds.

The nature of this assay: Antioxidant activity assessed as concentration required to double citronellal oxidation half life by thermo-oxidation method relative to control. It is filed as functional.

Take `Oc1ccc(CCc2cc(O)cc(O)c2)cc1`: the Activity was 260 µM.

As for `Oc1ccc(/C=C\c2cc(O)cc(O)c2)cc1`, the Activity turned out to be 241 µM.

As to `Oc1ccc(/C=C/c2cc(O)cc(O)c2)cc1`, the Activity is 135 µM.
